Key:
pain [1] = conditions: Kathuria S., et al, Nat. Med., 2003; cited from earlier work
mechanical hyperalgesia = test: Paw withdrawal test for mechanical hyperalgesia (Randall-Selitto analgesimeter); type: in vivo; conditions: rat, 50 mg/kg (FIG. 1)
Description: The paw withdrawal test was used to assess mechanical hyperalgesia. The nociceptive threshold, expressed in grams, was measured by applying increasing pressure to the left and right hind paws using a Randall-Selitto analgesimeter (Ugo Basile, Varese, Italy). The parameter used to quantify the nociceptive threshold was defined as the pressure (grams) at which the rat withdrew its paw. Rats were habituated to the testing procedures and handling by the investigator in the week prior to the experiment.
Dose response experiments at 10, 30 and 100 mg/kg were also conducted with ST4068, ST3911 and ST3913.

pain [2] = conditions: Kathuria S., et al, Nat. Med., 2003; cited from earlier work; remark: listed apart in the source
anxiety = conditions: Kathuria S., et al, Nat. Med., 2003; cited from earlier work

NC(=O)c1cccc(-c2cccc(OC(=O)NC3CCCCC3)c2)c1 [URB597]
analgesic efficacy in the rat formalin test (pain [1]): analgesic efficacy | analgesic activity (nociceptive threshold, paw withdrawal) (mechanical hyperalgesia): did not show any activity | analgesic efficacy in the rat hot plate test (pain [2]): analgesic efficacy | efficacy in the zero plus maze animal model of anxiety (anxiety): efficacious

From US20120252865A1, “CARBAMATE DERIVATIVES IN PARTICULAR FOR THE TREATMENT OF NEUROLOGICAL DISORDERS” (SIGMA-TAU INDUSTRIE FARMACEUTICHE RIUNITE S.P.A., priority 2009, published 2012)
